Results: patent publication US20160175249A1, “Liposomes Containing Oligopeptide Fragments of Myelin Basic Protein, a Pharmaceutical Composition and a Method for Treatment of Multiple Sclerosis” (LIPOXEN TECHNOLOGIES LIMITED, priority 2009, published 2016)
Values belong to the molecule of their own block, whether it stands above or below them.

Assays:
[1] = molecular target: polyclonal serum anti-MBP antibodies isolated from immunized DA rats; test: Surface plasmon resonance of autoAb binding to biotinylated MBP peptides and MBP; details: SPR, BiaCore T-200, antibodies 50 μg/ml, immobilized peptide or MBP; for Kd: read-out: effective dissociation constant
Method: To quantify autoAb recognition of the identified MBP epitopes, and to confirm their sequence in vitro, the affinity of polyclonal serum anti-MBP antibodies isolated from immunized DA rats for biotinylated MBP peptides was determined by surface plasmon resonance (FIG. 2B). The effective dissociation constant of the full-length MBP protein (1.5×10^−8) was determined to be nanomolar, as were the dissociation constants for MBP encephalitogenic (9.6×10^−9) and C-terminal (8.4×10^−9) fragments, verifying their identity as major B cell epitopes.
All surface plasmon resonance measurements were performed on BiaCore T-200 apparatus (GE Healthcare, US). Biotinylated MBP peptides (50 μg/ml) (listed on FIG. 2) and MBP were immobilized on SA and CM-5 chips respectively. All procedures were performed according manufacture's recommendations. Flow rate of HBS-EP buffer was kept as 10 μl/min during all measurements. Antibodies (50 μg/ml) were tested on both chips with standard association/dissociation time 300/300 s. Dissociation constants were calculated using BiaCore T-200 Evaluation Software 1.0.

[2] = tested on: experimental autoimmune encephalomyelitis (EAE) in DA rats; test: EAE in DA rats treated with MBP peptides in mannosylated SUV liposomes (Example 10); type: in vivo
Method: All animal studies were carried out in animal facilities of Assaf Harofeh Medical Center (Zerifin, Israel) using standard approved practices for animal care. Induction of EAE was performed in 8-9 weeks Dark Agouti (DA) female rats. Briefly, rats were injected intradermally at the base of the tail with a total volume of 200 μl of inoculum, containing […] of MBP(63-81) (ANASPEC), in saline mixed (1:1) with CFA, (incomplete Freund's adjuvant (IFA), Sigma), and 1 mg MT (strain H37 RA; Difco Laboratories, Detroit, Mich.). Animals developing symptoms of MS were included to the study. Rats were treated with different liposomes formulations (Table 3), copaxone, or placebo (vehicle) under similar conditions for 6 days. All formulations were administrated by one subcutaneous injection per day. Animals were followed up till day 28th post EAE induction. Clinical signs score was performed daily during all study periods. Score gradation was the following: 0—Normal 1—tail weakness, 2—hind leg weakness or paralysis, 3—hind leg paralysis, dragging hind limbs, 4—complete paralysis, unable to move, 5—death.
Liposomes were assembled from a mixture of egg phosphatidylcholine (PC) and one molar percent mannosylated DOG (ManDOG) (Durova OM, supra). Assembly of SUV liposomes was performed as illustrated in FIG. 3: (i) formation of irregular lipid layers during evaporation of organic solvent, followed by re-hydration leading to the multi-layer multilamellar vesicle (MLV) liposomes formation; (ii) high-pressure homogenization resulting in formation of empty SUV; (iii) freeze drying of SUV liposomes with peptides—at this stage peptides are located between collapsed SUV liposomes; and (iv) encapsulation of peptides during second re-hydration into the SUV liposomes with an average diameter of approximately 60-100 nm, containing 1.0% mannose residues on their surface. Four formulations were used for this study: each B cell epitope MBP peptide (MBP1, MBP2, and MBP3) individually and a 1:1:1 mixture (by mass) of all three peptides.
Small unilamellar vesicles (SUV) were prepared from egg phosphatidylcholine (PC) and mannosylated DOG (Espuelas S. et al., Synthesis of an amphiphilic tetraantennary mannosyl conjugate and incorporation into liposome carriers, 2003 Bioorg Med Chem Lett., August 4; 13(15):2557-60, the contents of which are hereby incorporated by reference in their entirety for all purposes) (1:100 molar ratio) by high pressure homogenization (Durova OM, supra). Briefly, lipid mixture (100 mg/ml) in CHCl3 was dried under vacuum, further re-suspended in Milli-Q water to a final lipid concentration 50 mg/ml, followed by high-pressure homogenization (20,000 psi). Resulting SUV were mixed with peptides (lipid to peptide ratio 330:1) together with excess sugar (lactose to lipid ratio 3:1) with subsequent freeze-drying. Following rehydration under controlled conditions, the resulting SUV liposomes were washed by centrifugation to remove non-incorporated materials. The washed pellets were re-suspended in PBS to the required dose volume. Peptide incorporation was estimated on the basis of reversed-phase HPLC using linear gradient of acetonitrile applied on C18 column. The z-average diameter and zeta potential of liposomes were measured on a Brookhaven ZetaPlus zetasizer at 25° C. by diluting […] of the dispersion to the required volume with 1 mM PBS or appropriate media.
To test the therapeutic potential of the four formulations, DA rates presenting with induced EAE were subcutaneously injected with one of the four mannosylated liposomal formulations, copaxone (positive control), free (un-encapsulated) MBPI peptide (negative control), and empty mannosylated liposomes (vehicle control; Table 3).
Treatment of each rat was initiated at the first sign of EAE clinical manifestation. […]

EAE-induced DA rats = test: EAE-induced DA rat model, paralysis score and mortality (DA-EAE-28-01, Example 12); type: in vivo; details: daily s.c. injection, 6 total
Method: Each of the seven formulations being evaluated was provided as a lyophilized powder and stored at 4° C. Rehydration of each daily group dose was done with water for injection according to Table 6. MBP peptide formulations were re-suspended in water for injection (Cure Medical) and copaxone (Teva LTD) was diluted with Saline to a final concentration of 150 μg/mL. Each subject animal was administered the test formulation for 6 consecutive days by subcutaneous injection.
9 week old Dark Agouti (DA) female rats (Harlan Laboratories, Inc.), weighing between 125 and 145 grams were used as the test subjects. The health status of the animals used in this study was examined on arrival. Only animals in good health were acclimatized to laboratory conditions and were used in the study. Animals were provided Protein Rodent Diet (Teklad) ad libitum and free access to drinking water. Animals were housed in a controlled environment at between 20° C. and 24° C. with a relative humidity of 30-70% and a 12 hr light/12 hr dark cycle. Animals were randomly assigned to their respective test group. This study was performed following the review by the Committee for Ethical Conduct in the Care and Use of Laboratory Animals of the Assaf Harofeh medical center, Beer Yaakov, Ethical Committee number: 68/2009.
For induction of EAE, rats were intradermally injected at the base of the tail with a total volume of 200 μl of inoculum containing 50 μg of MBP(63-81) (ANASPEC), in saline mixed (1:1) with CFA, (IFA, Sigma) and 1 mg Mt (strain H37 RA; Difco Laboratories, Detroit, Mich.).
The rats were evaluated up daily starting 24 hours after immunization. […]
7-10 days post EAE induction, 54 animals were divided to 9 groups (6 rats in each), and blood was collected from 2 rats of each group before the initiation of the treatment. […] The animals were maintained and evaluated until day 28th post EAE-induction. […]
Animals were observed individually and clinical signs were recorded once daily during all study periods. […] The body weight of each animals was determined daily during all study periods. […]

Molecule: IFKLGGRDSRSGSPMARR [C-terminal fragment]
- Kd [1]: 8.4 nM

Molecule: GGDRGAPKRGSGKDSHH (MBP peptide) [MBP1, myelin basic protein fragment MBP(46-62), free un-encapsulated peptide]
- mean disease score course (FIG. 4) ([2]; 6 daily s.c. injections from first clinical sign): did not provide any beneficial effects
- Mortality ([2]; one s.c. injection per day, 6 injections, deaths/N): 1/15
- Median Cumulative Disease Score ([2]; one s.c. injection per day, 6 injections, doses per Table 3): 19.5
- Median Maximal Disease Score (IQR) ([2]; one s.c. injection per day, 6 injections, doses per Table 3, score 0-5): 3 (0.5)^2
- Mortality Rate (EAE-induced DA rats; 54 EAE induced DA rats, peptide dose 50 μg (mixtures 150 μg), deaths/N): 1/6
- efficacy, overall disease score (EAE-induced DA rats; comparison between groups): comparable

The next lines start with the values.

- Kd [1]: 9.6 nM
Molecule: QDENPVVHFFKNIV [MBP encephalitogenic fragment]

- effective dissociation constant [1]: not detectable
Molecule: MDHARHGFLPRH [biotinylated MBP fragment]

- Kd [1]: 15 nM
B1: full-length MBP protein: myelin basic protein, 18.5 kDa, 171 amino acids (protein)
chain: MASQKRPSQRHGSKYLATASTMDHARHGFLPRHRDTGILDSIGRFFGGDRGAPKRGSGKDSHHPARTAHYGSLPQKSHGRTQDENPVVHFFKNIVTPRTPPPSQGKGRGLSLSRFSWGAEGQRPGFGYGGRASDYKSAHKGFKGVDAQGTLSKIFKLGGRDSRSGSPMARR
modifications: MBP splice isoforms
notes: myelin basic protein, 18.5 kDa, 171 amino acids
